# Assay results as given in the supplement of paper PMC10307832.
# Tests used:
# Experiment in all cases: relative viability (nuclei count vs DMSO), 5 days (fraction); higher = more cells survive
# [1] = compound: COc1ncc(-c2ccc3nccc(-c4ccnnc4)c3c2)cc1NS(=O)(=O)c1ccc(F)cc1F [Omipalisib] + Cc1cc(Nc2cc(N3CCN(C)CC3)nc(Sc3ccc(NC(=O)C4CC4)cc3)n2)n[nH]1 [Tozasertib] (partner 0.1 µM)
# In short: (§1)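 Lung cancer cell lines in 1536-well plates got either a single drug or a fixed anchor-drug dose together with five library-drug doses (not always all listed) in √10 steps, by pin tool, on the day after seeding. Nuclei were counted after 5 days, and relative viability is the treated-to-vehicle ratio of nuclei counts. Values are medians of duplicate plates.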
# [2] = compound: COc1ncc(-c2ccc3nccc(-c4ccnnc4)c3c2)cc1NS(=O)(=O)c1ccc(F)cc1F [Omipalisib] + C[C@@H](Oc1cc(-c2cnn(C3CCNCC3)c2)cnc1N)c1c(Cl)ccc(F)c1Cl [Crizotinib] (partner 1 µM)
# In short: as §1
# [3] = compound: COc1ncc(-c2ccc3nccc(-c4ccnnc4)c3c2)cc1NS(=O)(=O)c1ccc(F)cc1F [Omipalisib] + Nc1ncn([C@H]2C[C@H](O)[C@@H](CO)O2)c(=O)n1 [Decitabine] (partner 2 µM)
# In short: as §1
# [4] = compound: COc1ncc(-c2ccc3nccc(-c4ccnnc4)c3c2)cc1NS(=O)(=O)c1ccc(F)cc1F [Omipalisib] + CCNC(=O)c1noc(-c2cc(C(C)C)c(O)cc2O)c1-c1ccc(CN2CCOCC2)cc1 [Luminespib] (partner 0.01 µM)
# In short: as §1
# [5] = compound: COc1ncc(-c2ccc3nccc(-c4ccnnc4)c3c2)cc1NS(=O)(=O)c1ccc(F)cc1F [Omipalisib] + CC(C)C[C@H](NC(=O)[C@H](Cc1ccccc1)NC(=O)c1cnccn1)B(O)O [Bortezomib] (partner 0.002 µM)
# In short: as §1
# [6] = compound: COc1ncc(-c2ccc3nccc(-c4ccnnc4)c3c2)cc1NS(=O)(=O)c1ccc(F)cc1F [Omipalisib] + CC(=O)Nc1cccc(-n2c(=O)n(C3CC3)c(=O)c3c(Nc4ccc(I)cc4F)n(C)c(=O)c(C)c32)c1 [Trametinib] (partner 0.02 µM)
# In short: as §1
Cell Line,relative viability ([1]; first compound 0.0003 µM),relative viability ([1]; first compound 0.003 µM),relative viability ([1]; first compound 0.03 µM),relative viability ([2]; first compound 0.0003 µM),relative viability ([2]; first compound 0.003 µM),relative viability ([2]; first compound 0.03 µM),relative viability ([3]; first compound 0.0003 µM),relative viability ([3]; first compound 0.003 µM),relative viability ([3]; first compound 0.03 µM),relative viability ([4]; first compound 0.0003 µM),relative viability ([4]; first compound 0.003 µM),relative viability ([4]; first compound 0.03 µM),relative viability ([5]; first compound 0.0003 µM),relative viability ([5]; first compound 0.003 µM),relative viability ([5]; first compound 0.03 µM),relative viability ([6]; first compound 0.0003 µM),relative viability ([6]; first compound 0.003 µM),relative viability ([6]; first compound 0.03 µM)
NCI-H322M,0.467,0.407,0.348,0.859,0.843,0.532,0.711,0.643,0.527,0.518,0.517,0.298,1.28,1.01,1.03,0.478,0.453,0.416
NCI-H441,0.683,0.451,0.238,0.462,0.32,0.367,0.24,0.206,0.227,0.207,0.28,0.234,0.418,0.362,0.259,0.474,0.232,0.184
NCI-H460,0.476,0.393,0.0957,0.772,0.589,0.132,0.41,0.286,0.247,0.0375,0.0227,0.0165,1.07,0.824,0.109,0.0973,0.0781,0.0544
NCI-H520,0.319,0.308,0.235,0.636,0.622,0.193,0.51,0.369,0.233,0.208,0.232,0.212,0.465,0.254,0.171,0.576,0.314,0.172
NCI-H596,0.824,0.598,0.287,0.93,0.561,0.361,0.846,0.75,0.506,0.98,0.657,0.285,1.04,0.691,0.386,0.899,0.494,0.299
NCI-H647,0.33,0.158,0.0783,0.979,0.921,0.443,0.34,0.248,0.378,0.233,0.16,0.13,1.05,0.739,0.462,0.341,0.278,0.15
NCI-H650,0.665,0.608,0.396,0.671,0.472,0.338,0.375,0.257,0.321,0.81,0.592,0.378,0.749,0.501,0.293,0.925,0.628,0.393
NCI-H661,0.366,0.388,0.37,0.969,0.94,0.703,0.522,0.453,0.422,0.938,1.01,0.833,0.69,0.595,0.314,0.605,0.454,0.409
